Values after ≈ are worked out from the molar mass of the structure shown. Read-outs that look alike come from different tables or passages of the source. Positions of bridges follow the written chain, without caps; N, C: chain ends. Non-standard residues stand in square brackets, D forms with d. Residues, ends and D or L forms follow the SMILES beside them. S5 = C=CCCC[C@](C)(N)C(=O)O; PEG3 = NCCOCCOCCOCCC(=O)O
Legend:
in vitro [1] = format: cell-based; settings: human
In short: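 HepG2 cells in EMEM with 10% FBS, allowed 4 h to attach, then exposed to serial dilutions of StAMPs (from a 5 mg/mL water stock) or vehicle. After 48 h at 37 °C, viability read by CellTiter-Glo luminescence.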

S. aureus = format: cell-based, Staphylococcus aureus
In short: (§1)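 Read-out is visible growth: the MIC is the minimum peptide concentration showing none after 20-24 h at 37 °C. Peptides were serially diluted from water stocks and mixed with log-phase bacteria (final 5×10^5 CFU/ml) in Mueller-Hinton or cation-adjusted Mueller-Hinton broth.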

K. pneumoniae = format: cell-based, Klebsiella pneumoniae
In short: as §1

A. baumannii = format: cell-based, Acinetobacter baumannii
In short: as §1

in vitro [2] = format: cell-based; settings: human; remark: listed apart in the source
In short: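 RPTEC or HepG2 cells plated overnight, given fresh media, then serial StAMP dilutions (from 5 mg/mL water stock) or vehicle at 37 °C. Cytotoxicity read as LDH release into media, absorbance 490 nm; renal toxicity after 90 min, liver toxicity after 48 h incubation.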

P. aeruginosa = format: cell-based, Pseudomonas aeruginosa
In short: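 Broth microdilution adapted from CLSI in MHB or cation-adjusted MHB; log-phase P. aeruginosa at 5×10^5 CFU/ml final with serially diluted stapled peptides. Incubated 20-24 h at 37 °C; MIC is the lowest concentration without visible growth.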

E. coli = format: cell-based, Escherichia coli
In short: as §1

[3] = Inhibitory Concentration at 50% Cytotoxicity (IC50) Human Liver Cells (HepG2)

Compound	IC50 at 48 hours (in vitro [1]; [3]) [mg/L]	Minimum Inhibitory Concentration (MIC) S. aureus (S. aureus) [mg/L]	Minimum Inhibitory Concentration (MIC) K. pneumoniae (K. pneumoniae) [mg/L]	Minimum Inhibitory Concentration (MIC) A. baumannii (A. baumannii) [mg/L]	IC50 at 90 min (in vitro [2]) [mg/L]	Minimum Inhibitory Concentration (MIC) P. aeruginosa (P. aeruginosa) [mg/L]	Minimum Inhibitory Concentration (MIC) E. coli (E. coli) [mg/L]	IC50 at 48 hours (in vitro [1]; 48 hours of incubation, read-out: Inhibitory Concentration at 50% Cytotoxicity (IC50) Human Liver Cells (HepG2)) [mg/L]	IC50 at 90 min (in vitro [2]; 90 minutes of incubation, read-out: Inhibitory Concentration at 50% Cytotoxicity (IC50) Human Renal Proximal Tubule Epithelial Cells (RPTEC)) [mg/L]
CC(C)[C@@H]1NC(=O)[C@@](C)(NC(=O)[C@H](C)NC(=O)[C@H](CCCCN)NC(=O)CNC(=O)[C@H](Cc2ccccc2)NC(=O)[C@H](CCCCN)NC(=O)[C@H](CCCCN)NC(=O)[C@H](CCCCN)NC(=O)[C@H](CO)NC(=O)[C@H](Cc2c[nH]cn2)NC(=O)[C@]2(C)CCCC=CCCC[C@](C)(NC(=O)CN)C(=O)NCC(=O)N[C@@H](CCCCN)C(=O)N[C@@H](Cc3ccccc3)C(=O)N2)CCCC=CCCC[C@@](C)(C(=O)N[C@@H](C)C(=O)N[C@@H](CCCCN)C(=O)N[C@@H](CCCCN)C(N)=O)NC(=O)[C@H](Cc2c[nH]c3ccccc23)NC(=O)CNC1=O [compound 66] (H-G[S5]GKF[S5]HSKKKFGKA[S5]VGW[S5]AKK-NH2; staple 2-6, 16-20)	38 (≈ 14.7 µM)	32	4	4	16 (≈ 6.18 µM)	6	4		
CC(C)[C@@H]1NC(=O)[C@@](C)(NC(=O)[C@H](C)NC(=O)[C@H](CCCCN)NC(=O)CNC(=O)[C@H](Cc2ccccc2)NC(=O)[C@H](CCCCN)NC(=O)[C@H](CCCCN)NC(=O)[C@H](CCCCN)NC(=O)[C@H](CCCCN)NC(=O)[C@H](CCCCN)NC(=O)[C@]2(C)CCCC=CCCC[C@](C)(NC(=O)CN)C(=O)NCC(=O)N[C@@H](CCCCN)C(=O)N[C@@H](Cc3ccccc3)C(=O)N2)CCCC=CCCC[C@@](C)(C(=O)N[C@@H](C)C(=O)N[C@@H](CCCCN)C(=O)N[C@@H](CCCCN)C(=O)NCC(=O)NCC(=O)N[C@@H](CCC(=O)O)C(N)=O)NC(=O)[C@H](CCC(=O)O)NC(=O)[C@@H](Cc2ccccc2)NC1=O [compound 34] (H-G[S5]GKF[S5]KKKKKFGKA[S5]V[dF]E[S5]AKKGGE-NH2; staple 2-6, 16-20)		>64	2	2		4	2	109 (≈ 37.6 µM)	96 (≈ 33.1 µM)
CC(C)[C@@H]1NC(=O)[C@@](C)(NC(=O)[C@H](C)NC(=O)[C@H](CCCCN)NC(=O)[C@H](Cc2c[nH]c3ccccc23)NC(=O)[C@H](Cc2c[nH]c3ccccc23)NC(=O)[C@H](CCCCN)NC(=O)[C@H](CCCCN)NC(=O)[C@H](CCCCN)NC(=O)[C@H](CO)NC(=O)[C@H](Cc2c[nH]cn2)NC(=O)[C@]2(C)CCCC=CCCC[C@](C)(NC(=O)CN)C(=O)NCC(=O)N[C@@H](CCCCN)C(=O)N[C@@H](Cc3ccccc3)C(=O)N2)CCCC=CCCC[C@@](C)(C(=O)N[C@@H](C)C(=O)N[C@@H](CCCCN)C(=O)N[C@@H](CCCCN)C(N)=O)NC(=O)[C@H](CCC(=O)O)NC(=O)CNC1=O [compound 62] (H-G[S5]GKF[S5]HSKKKWWKA[S5]VGE[S5]AKK-NH2; staple 2-6, 16-20)	35 (≈ 13 µM)	>64	8	4	30 (≈ 11.1 µM)	16	16		
CC(C)[C@@H]1NC(=O)[C@@](C)(NC(=O)[C@H](C)NC(=O)[C@H](CCCCN)NC(=O)CNC(=O)[C@H](Cc2ccccc2)NC(=O)[C@H](CCCCN)NC(=O)[C@H](CCCCN)NC(=O)[C@H](CCCCN)NC(=O)[C@H](Cc2ccc(O)cc2)NC(=O)[C@H](Cc2c[nH]cn2)NC(=O)[C@]2(C)CCCC=CCCC[C@](C)(NC(=O)CN)C(=O)NCC(=O)N[C@@H](CCCCN)C(=O)N[C@@H](Cc3ccccc3)C(=O)N2)CCCC=CCCC[C@@](C)(C(=O)N[C@@H](C)C(=O)N[C@@H](CCCCN)C(=O)N[C@@H](CCCCN)C(N)=O)NC(=O)[C@H](CCC(=O)O)NC(=O)CNC1=O [compound 9] (H-G[S5]GKF[S5]HYKKKFGKA[S5]VGE[S5]AKK-NH2; staple 2-6, 16-20)	> 200	>64	>64	4	> 200	16	8		
CC(C)[C@@H]1NC(=O)[C@@](C)(NC(=O)[C@H](C)NC(=O)[C@H](CCCCN)NC(=O)CNC(=O)[C@H](Cc2ccccc2)NC(=O)[C@H](CCCCN)NC(=O)[C@H](CCCCN)NC(=O)[C@H](CCCCN)NC(=O)[C@H](CO)NC(=O)[C@H](Cc2c[nH]cn2)NC(=O)[C@]2(C)CCCC=CCCC[C@](C)(NC(=O)CN)C(=O)NCC(=O)N[C@@H](CCCCN)C(=O)N[C@@H](Cc3ccccc3)C(=O)N2)CCCC=CCCC[C@@](C)(C(=O)N[C@@H](C)C(=O)N[C@@H](CCCCN)C(=O)N[C@@H](CCCCN)C(N)=O)NC(=O)[C@H](CCC(=O)O)NC(=O)[C@H](Cc2c[nH]c3ccccc23)NC1=O (single isomer, unassigned) [compound 10]	150 (≈ 56.4 µM)	32	4	2	110 (≈ 41.3 µM)	4	4		
CC(C)[C@@H]1NC(=O)[C@@](C)(NC(=O)[C@H](C)NC(=O)[C@H](CCCCN)NC(=O)CNC(=O)[C@H](Cc2ccccc2)NC(=O)[C@H](CCCCN)NC(=O)[C@H](CCCCN)NC(=O)[C@H](CCCCN)NC(=O)[C@H](CO)NC(=O)[C@H](Cc2c[nH]cn2)NC(=O)[C@]2(C)CCCC=CCCC[C@](C)(NC(=O)CN)C(=O)NCC(=O)N[C@@H](CCCCN)C(=O)N[C@@H](Cc3ccccc3)C(=O)N2)CCCC=CCCC[C@@](C)(C(=O)N[C@@H](C)C(=O)N[C@@H](CCCCN)C(=O)N[C@@H](CCCCN)C(N)=O)NC(=O)[C@H](CCC(N)=O)NC(=O)CNC1=O [compound 17] (H-G[S5]GKF[S5]HSKKKFGKA[S5]VGQ[S5]AKK-NH2; staple 2-6, 16-20)	> 200	>64	32	2	~180 (≈ 71.1 µM)	4	3		
CC(C)[C@@H]1NC(=O)[C@@](C)(NC(=O)[C@H](C)NC(=O)[C@H](CCCCN)NC(=O)CNC(=O)[C@H](Cc2ccccc2)NC(=O)[C@H](CCCCN)NC(=O)[C@H](CCCCN)NC(=O)[C@H](CCCCN)NC(=O)[C@H](CCCCN)NC(=O)[C@H](CCCCN)NC(=O)[C@]2(C)CCCC=CCCC[C@](C)(NC(=O)CN)C(=O)NCC(=O)N[C@@H](CCCCN)C(=O)N[C@@H](Cc3ccccc3)C(=O)N2)CCCC=CCCC[C@@](C)(C(=O)N[C@@H](C)C(=O)N[C@@H](CCCCN)C(=O)N[C@@H](CCCCN)C(=O)NCCOCCOCCOCCC(N)=O)NC(=O)[C@H](CCC(=O)O)NC(=O)CNC1=O [compound 73] (H-G[S5]GKF[S5]KKKKKFGKA[S5]VGE[S5]AKK[PEG3]-NH2; staple 2-6, 16-20)	407 (≈ 147 µM)	>64	4	2	671 (≈ 242 µM)	4	2		
